Experimental data from patent US20050272784A1 (priority 2004, published 2005).

These compounds were tested on type III protein secretion system of P. aeruginosa PA103 (ExoU secretion) (assay: Tertiary assay: Type III-dependent secretion of ExoU by P. aeruginosa PA103). Details: Pseudomonas aeruginosa, ExoU Conc 100 μM, read-out: ExoU % Inh.
Type: cell-based
Outline: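 PA103 grown in deferrated medium with nitrilotriacetic acid (Type III inducer), with or without inhibitor, for a prolonged period. Culture supernatant was ammonium sulfate-precipitated and run on SDS-PAGE with Colloidal Blue staining. The 73.9 kDa ExoU band was quantified by imager scanning relative to untreated controls.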

| SMILES | inhibition at 100 µM |
| --- | --- |
| O=C(N[C@@H](C[S+]([O-])Cc1ccccc1)C(=O)O)c1nc(-c2ccc(C(F)(F)F)cc2)[nH]c1-c1ccc(-c2ccccc2)cc1 (stereo partly drawn) [Compound 12, (R)-2-{[5-Biphenyl-4-yl-2-(4-trifluoromethylphenyl)-1H-imidazole-4-carbonyl]amino}-3-phenylmethanesulfinylpropionic acid] | 84.3% |

What follows are compounds tested on SPI1 type III protein secretion system (SopE'-'Bla secretion) (assay: Primary assay: Type III protein secretion of the chimeric SopE'-'Bla polypeptide by Salmonella enterica). Details: read-out: SopE IC50.
Type: cell-based
Description: Primary assay: Type III protein secretion of the chimeric SopE′-'Bla polypeptide by Salmonella enterica. This procedure is a cell-based assay that measures the type III-dependent secretion by Salmonella enterica of a plasmid-encoded chimeric polypeptide whose synthesis can be regulated, and which is endowed with an enzymatic activity that can be monitored […] by hydrolysis of a substrate that is unable to penetrate into the bacterial cytoplasm within the time constraints of the reaction. Thus, the colorimetric reaction is not influenced by SopE′-'Bla polypeptide in the bacterial cytoplasm. Instead, it effectively measures the amount of polypeptide that has been secreted from the S. enterica cytoplasm to the extracellular medium via type III system protein secretion.
The SopE′-' Bla recombinant polypeptide consists of two functionally distinct domains spliced together. The N-terminus domain is encoded by a polynucleotide region specifying the signal for type III secretion of the SopE polypeptide of S. enterica, an effector of the SPI1 type III protein secretion system. The C-terminus domain of SopE′-'Bla consists of a 263 amino acid peptide sequence that corresponds to the TEM-1 β-lactamase expressed by plasmid pBR322 but without its N-terminal signal sequence. The TEM-1 β-lactamase part of the SopE′-'Bla chimeric polypeptide is used as a reporter enzyme. It is capable of hydrolyzing nitrocefin resulting in a product whose accumulation can be monitored by colorimetric detection. The secretion of the SopE′-'Bla chimeric polypeptide from the cytoplasm to the extracellular medium is dependent on type III protein secretion.
For this procedure, cells grown under conditions known to favor a functional SPI1 secretion system are induced for expression of the SopE′-'Bla protein and grown either in the presence or in the absence of putative inhibitors for determined time. Nitrocefin is then added to the various cultures and its hydrolysis are used for quantitation. An inhibitor of Type III protein secretion is generally a compound that reduces the signal of the enzymatic reaction by decreasing the amount of SopE′-'Bla secreted into the extracellular medium.

| SMILES | IC50 |
| --- | --- |
| O=C(NC(Cc1ccc(Cl)cc1)C(=O)O)c1cc(-c2ccc(-c3ccccc3)cc2)nn1-c1ccc(Cl)c(Cl)c1 (stereo not drawn) [Compound 75, 2-{[5-Biphenyl-4-yl-2-(3,4-dichlorophenyl)-2H-pyrazole-3-carbonyl]amino}-3-(4-chlorophenyl)propionic acid] | 3 µM |
| O=C(N[C@@H](Cc1ccc(Cl)cc1)C(=O)O)c1nc(-c2ccc(C(F)(F)F)cc2)oc1-c1ccc2ccccc2n1 [Compound 28, (S)-3-(4-Chlorophenyl)-2-{[5-quinolin-2-yl-2-(4-trifluoromethylphenyl)oxazole-4-carbonyl]amino}propionic acid] | 3.6 µM |
| O=C(N[C@@H](COCc1ccccc1)C(=O)O)c1nc(-c2ccc(C(F)(F)F)cc2)oc1C1CCN(c2nccc(C(F)(F)F)n2)CC1 [Compound 56] | 12 µM |
| O=C(N[C@@H](COCc1ccccc1)C(=O)O)c1nc(-c2ccc(-c3ccccc3)cc2)oc1-c1cnc(Cl)c(Cl)c1 [Compound 44, (S)-3-Benzyloxy-2-{[2-biphenyl-4-yl-5-(5,6-dichloropyridin-3-yl)oxazole-4-carbonyl]amino}propionic acid] | 3.3 µM |
| O=C(N[C@@H](CSCc1ccccc1)C(=O)O)c1nc(-c2ccc(Oc3ccccc3)cc2)oc1-c1cnc(Cl)c(Cl)c1 [Compound 39, (R)-3-Benzylsulfanyl-2-{[5-(5,6-dichloropyridin-3-yl)-2-(4-phenoxyphenyl)oxazole-4-carbonyl]amino}propionic acid] | 9.1 µM |
| O=C(NC(Cc1ccc(Cl)cc1)C(=O)O)c1nc(-c2cccc3ccccc23)oc1-c1ccc(C(F)(F)F)nc1 (stereo not drawn) [Compound 58, 3-(4-Chlorophenyl)-2-{[2-naphthalen-1-yl-5-(6-trifluoromethylpyridin-3-yl)oxazole-4-carbonyl]amino}propionic acid] | 4.2 µM |
| O=C(NC(Cc1ccc(Cl)cc1)C(=O)O)c1cc(-c2ccc(-c3ccccc3)cc2)nn1-c1ccc(C(F)(F)F)cc1 (stereo not drawn) [Compound 76, 2-{[5-Biphenyl-4-yl-2-(4-trifluoromethylphenyl)-2H-pyrazole-3-carbonyl]amino}-3-(4-chlorophenyl)propionic acid] | 19.6 µM |
| O=C(N[C@@H](COCc1ccccc1)C(=O)O)c1nc(-c2ccc(Oc3ccccc3)cc2)oc1-c1cnc(Cl)c(Cl)c1 [Compound 40, (S)-3-Benzyloxy-2-{[5-(5,6-dichloropyridin-3-yl)-2-(4-phenoxyphenyl)oxazole-4-carbonyl]amino}propionic acid] | 5.2 µM |
| O=C(N[C@@H](C[S+]([O-])Cc1ccccc1)C(=O)O)c1nc(-c2ccc(C(F)(F)F)cc2)[nH]c1-c1ccc(-c2ccccc2)cc1 (stereo partly drawn) [Compound 12, (R)-2-{[5-Biphenyl-4-yl-2-(4-trifluoromethylphenyl)-1H-imidazole-4-carbonyl]amino}-3-phenylmethanesulfinylpropionic acid] | 14 µM |
| O=C(N[C@@H](COCc1ccccc1)C(=O)O)c1nc(-c2ccc(C(F)(F)F)cc2)oc1-c1cccnc1Cl [Compound 24, (S)-3-Benzyloxy-2-{[5-(2-chloropyridin-3-yl)-2-(4-trifluoromethylphenyl)oxazole-4-carbonyl]amino}propionic acid] | 80.5 µM |
| O=C(N[C@@H](CSCc1ccccc1)C(=O)O)c1nc(-c2ccc(C(F)(F)F)cc2)sc1-c1ccc(-c2ccccc2)cc1 [Compound 2, (R)-3-Benzylsulfanyl-2-{[5-biphenyl-4-yl-2-(4-trifluoromethylphenyl)thiazole-4-carbonyl]amino}propionic acid] | 16.5 µM |
| O=C(N[C@@H](CSCc1ccccc1)C(=O)O)c1nc(-c2ccc(C(F)(F)F)cc2)oc1-c1ccc(-c2noc(C(F)(F)F)n2)cc1 [Compound 50, (R)-3-Benzylsulfanyl-2-{[5-[4-(5-trifluoromethyl[1,2,4]oxadiazol-3-yl)phenyl]-2-(4-trifluoromethylphenyl)oxazole-4-carbonyl]amino}propionic acid] | 64.3 µM |
| O=C(NC(Cc1ccc(Cl)cc1)C(=O)O)c1nc(-c2ccc(Oc3ccccc3)cc2)oc1-c1ccc(Cl)nc1Cl (stereo not drawn) [Compound 38, 3-(4-Chlorophenyl)-2-{[5-(2,6-dichloropyridin-3-yl)-2-(4-phenoxyphenyl)oxazole-4-carbonyl]amino}propionic acid] | 2.4 µM |
| Cn1cc(-c2oc(-c3ccc(C(F)(F)F)cc3)nc2C(=O)N[C@@H](COCc2ccccc2)C(=O)O)c2ccccc21 [Compound 47, (S)-3-Benzyloxy-2-{[5-(1-methyl-1H-indol-3-yl)-2-(4-trifluoromethylphenyl)oxazole-4-carbonyl]amino}propionic acid] | 54 µM |
| O=C(N[C@@H](CSCc1ccccc1)C(=O)O)c1nc(-c2ccc(C(F)(F)F)cc2)oc1-c1ccc(-c2nccs2)cc1 [Compound 21, (R)-3-Benzylsulfanyl-2-{[5-(4-thiazol-2-yl-phenyl)-2-(4-trifluoromethylphenyl)oxazole-4-carbonyl]amino}propionic acid] | 3.1 µM |
| O=C(N[C@@H](CSCc1ccccc1)C(=O)O)c1nc(-c2ccc(C(F)(F)F)cc2)oc1-c1cccnc1Cl [Compound 25, (R)-3-Benzylsulfanyl-2-{[5-(2-chloropyridin-3-yl)-2-(4-trifluoromethylphenyl)oxazole-4-carbonyl]amino}propionic acid] | 62.6 µM |
| O=C(N[C@@H](CS(=O)(=O)Cc1ccccc1)C(=O)O)c1nc(-c2ccc(C(F)(F)F)cc2)oc1-c1cccnc1N1CCCCC1 [Compound 31, (R)-3-Phenylmethanesulfonyl-2-{[5-(3,4,5,6-tetrahydro-2H-[1,2′]bipyridin-3′-yl)-2-(4-trifluoromethylphenyl)oxazole-4-carbonyl]amino}propionic acid] | 71.5 µM |
| Cn1cc(-c2oc(-c3ccc(C(F)(F)F)cc3)nc2C(=O)N[C@@H](CSCc2ccccc2)C(=O)O)c2ccccc21 [Compound 46, (R)-3-Benzylsulfanyl-2-{[5-(1-methyl-1H-indol-3-yl)-2-(4-trifluoromethylphenyl)oxazole-4-carbonyl]amino}propionic acid] | 47.3 µM |
| CC(=O)N1CCN(c2ncccc2-c2oc(-c3ccc(C(F)(F)F)cc3)nc2C(=O)NC(Cc2ccc(Cl)cc2)C(=O)O)CC1 (stereo not drawn) [Compound 32, 2-{[5-[2-(4-Acetylpiperazin-1-yl)pyridin-3-yl]-2-(4-trifluoromethylphenyl)oxazole-4-carbonyl]amino}-3-(4-chlorophenyl)propionic acid] | 77.3 µM |
| O=C(N[C@@H](C[S+]([O-])Cc1ccccc1)C(=O)O)c1nc(-c2ccc(C(F)(F)F)cc2)oc1-c1cccnc1N1CCCCC1 (stereo partly drawn) [Compound 30, (R)-3-Phenylmethanesulfinyl-2-{[5-(3,4,5,6-tetrahydro-2H-[1,2′]bipyridin-3′-yl)-2-(4-trifluoromethylphenyl)oxazole-4-carbonyl]amino}propionic acid] | 29.2 µM |
